How the values were obtained:
Format in all cases: cell-based
MCF-7 cells = experiment: Inhibition of cell proliferation of MCF-7 cells (CCK-8, 9 days); settings: treated for 9 days, CCK-8 kit (Table 6)
Outline: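 MCF-7 cells seeded at 800 cells/well in DMEM with 10% FBS, exposed to a range of compound concentrations for 9 days at 37°C, 5% CO2. Viability read by CCK-8; IC50 derived for proliferation inhibition.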

ERα [1] = molecular target: T1, ERα (Homo sapiens, UniProt P03372); experiment: Degradation of ERα in MCF-7 cells (immunoblotting, 4 h)
T1 sequence (P03372 1-595): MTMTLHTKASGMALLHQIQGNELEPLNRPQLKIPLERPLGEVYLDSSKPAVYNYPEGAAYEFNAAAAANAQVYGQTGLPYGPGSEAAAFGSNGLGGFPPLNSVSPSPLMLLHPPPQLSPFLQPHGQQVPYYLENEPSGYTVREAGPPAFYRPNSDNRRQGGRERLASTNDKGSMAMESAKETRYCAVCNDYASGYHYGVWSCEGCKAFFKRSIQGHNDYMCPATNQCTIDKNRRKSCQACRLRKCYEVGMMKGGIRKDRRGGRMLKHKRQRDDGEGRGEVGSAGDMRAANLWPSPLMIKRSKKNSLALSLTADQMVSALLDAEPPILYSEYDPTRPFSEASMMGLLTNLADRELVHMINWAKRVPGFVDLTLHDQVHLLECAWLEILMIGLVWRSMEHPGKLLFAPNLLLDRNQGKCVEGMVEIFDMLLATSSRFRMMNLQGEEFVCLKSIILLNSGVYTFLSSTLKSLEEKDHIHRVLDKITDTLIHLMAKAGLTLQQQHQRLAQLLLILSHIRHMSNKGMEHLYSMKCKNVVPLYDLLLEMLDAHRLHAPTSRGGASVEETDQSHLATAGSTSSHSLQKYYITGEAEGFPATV
Outline: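 MCF-7 cells treated 4 h at 37°C with compounds at 0.15-1000nM final. ERα in lysates measured by immunoblot, with band grayscale normalized to an internal reference protein. Degradation rate calculated against DMSO-treated control.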

ERα [2] = molecular target: T1, ERα; experiment: Degradation of ERα in T-47D cells (immunoblotting, 4 h); design: host or cells: T-47D
Outline: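 T-47D cells were treated with compound (final 0.15-1000 nM, DMSO) for 4 h at 37°C, 5% CO2. Cells were lysed in RIPA buffer with protease inhibitor, and ERα protein in the cleared lysate was measured by immunoblotting.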

IC50 (MCF-7 cells) [µM] | Degradation rate (%) of ERα in MCF-7 cells (ERα [1]; 1nM compound) [%] | Degradation rate (%) of ERα in MCF-7 cells (ERα [1]; 10nM compound) [%] | Degradation rate (%) of ERα in T-47D cells (ERα [2]; 1nM compound) [%] | Degradation rate (%) of ERα in T-47D cells (ERα [2]; 10nM compound) [%] | Structure (SMILES)
0.00897 | 10 | 77 | 49 | 79 | O=C1CCC(N2Cc3c(ccc4c3OCC43CCN(C[C@H]4CC[C@@H](OC5CCN(c6ccc([C@@H]7c8ccc(O)cc8CC[C@@H]7c7ccccc7)cc6)CC5)CC4)CC3)C2=O)C(=O)N1 (stereo partly shown) [G25]
5.9 | -77 | -70 | -11 | -23 | O=C1CCC(N2Cc3cc4c(cc3C2=O)CCC2(CN(CC3CCN(c5ccc([C@@H]6c7ccc(O)cc7CC[C@@H]6c6ccccc6)cc5)CC3)C2)O4)C(=O)N1 (stereo partly shown) [H2]
7.74 | -32 | -7 | -41 | -48 | O=C1CCC(N2C(=O)c3ccc4c(c3C2=O)OCC42CCN(CC3CCN(c4ccc([C@@H]5c6ccc(O)cc6CC[C@@H]5c5ccccc5)cc4)CC3)CC2)C(=O)N1 (stereo partly shown) [H4]
4.17 | -6 | 7 | -35 | -32 | O=C1CCC(N2Cc3cc4c(cc3C2=O)C2(CCN(CC3CCN(c5ccc([C@@H]6c7ccc(O)cc7CC[C@@H]6c6ccccc6)cc5)CC3)CC2)CO4)C(=O)N1 (stereo partly shown) [H6]
9.28 | -28 | -4 | 0 | 36 | O=C1CCC(N2Cc3cc4c(cc3C2=O)CCC2(CN(C3CCN(C(=O)c5ccc([C@@H]6c7ccc(O)cc7CC[C@@H]6c6ccccc6)cc5)CC3)C2)O4)C(=O)N1 (stereo partly shown) [H10]
0.00324 | 39 | 62 | 48 | 71 | O=C1CCC(N2Cc3c(ccc4c3OCC43CCN(C(=O)CN4CCC5(CCN(c6ccc([C@@H]7c8ccc(O)cc8CC[C@@H]7c7ccccc7)cc6)C5)C4)CC3)C2=O)C(=O)N1 (stereo partly shown) [H13]
> 100 | 8 | -13 | 31 | 27 | O=C1CCC(N2Cc3c(ccc4c3OCC43CCN(C(=O)CN4CCN(c5ccc([C@@H]6c7ccc(O)cc7CC[C@@H]6c6ccccc6)cc5)CC4)CC3)C2=O)C(=O)N1 (stereo partly shown) [H14]
0.0435 | 29 | 51 | 5 | 56 | O=C1CCC(N2Cc3c(ccc4c3OCC43CCN(CC4CCC(N5CCN(c6ccc([C@@H]7c8ccc(O)cc8CC[C@@H]7c7ccccc7)cc6)CC5)CC4)CC3)C2=O)C(=O)N1 (stereo partly shown) [H15]
1.18 | -7 | 11 | 16 | 21 | O=C1CCC(N2Cc3cc4c(cc3C2=O)OC2(CC4)CN(C3CC4(CCC5(CCN(c6ccc([C@@H]7c8ccc(O)cc8CC[C@@H]7c7ccccc7)cc6)CC5)CC4)C3)C2)C(=O)N1 (stereo partly shown) [H24]
1.26 | -9 | -11 | 1 | 2 | O=C1CCC(N2Cc3cc4c(cc3C2=O)OC2(CC4)CN(C3CC4(CCC5(CC4)CN(c4ccc([C@@H]6c7ccc(O)cc7CC[C@@H]6c6ccccc6)cc4)C5)C3)C2)C(=O)N1 (stereo partly shown) [H26]
0.14 | 53 | 77 | 50 | 81 | O=C1CCC(N2Cc3c(ccc4c3OCC43CCN(CC(=O)NC4CC5(CCN(c6ccc([C@@H]7c8ccc(O)cc8CC[C@@H]7c7ccccc7)cc6)CC5)C4)CC3)C2=O)C(=O)N1 (stereo partly shown) [H46]
0.363 | 39 | 76 | 49 | 82 | CN(C(=O)CN1CCC2(CC1)COc1c2ccc2c1CN(C1CCC(=O)NC1=O)C2=O)C1CC2(CCN(c3ccc([C@@H]4c5ccc(O)cc5CC[C@@H]4c4ccccc4)cc3)CC2)C1 (stereo partly shown) [H47]
1.26 | 38 | 71 | 53 | 78 | CN(CC(=O)N1CCC2(CC1)COc1c2ccc2c1CN(C1CCC(=O)NC1=O)C2=O)C1CC2(CCN(c3ccc([C@@H]4c5ccc(O)cc5CC[C@@H]4c4ccccc4)cc3)CC2)C1 (stereo partly shown) [H48]
0.00508 | 50 | 71 | 48 | 77 | CN(C(=O)CN1CCC2(CC1)COc1c2ccc2c1CN(C1CCC(=O)NC1=O)C2=O)C1CCC2(CC1)CN(c1ccc([C@@H]3c4ccc(O)cc4CC[C@@H]3c3ccccc3)cc1)C2 (stereo partly shown) [H49]
0.153 | 46 | 75 | 49 | 79 | CN(CC(=O)N1CCC2(CC1)COc1c2ccc2c1CN(C1CCC(=O)NC1=O)C2=O)C1CCC2(CC1)CCN(c1ccc([C@@H]3c4ccc(O)cc4CC[C@@H]3c3ccccc3)cc1)CC2 (stereo partly shown) [H51]
5.32 | 53 | 61 | 49 | 74 | CN(CC(=O)N1CCC2(CC1)COc1c2ccc2c1CN(C1CCC(=O)NC1=O)C2=O)C1CCC2(CC1)CN(c1ccc([C@@H]3c4ccc(O)cc4CC[C@@H]3c3ccccc3)cc1)C2 (stereo partly shown) [H52]
0.0419 | 10 | 14 | 5 | 35 | O=C1CCC(N2Cc3c(ccc4c3OCC43CCN(C[C@H]4CC[C@@H](C#Cc5ccc([C@@H]6c7ccc(O)cc7CC[C@@H]6c6ccccc6)cc5)CC4)CC3)C2=O)C(=O)N1 (stereo partly shown) [H53]
0.26 | 11 | 44 | 24 | 60 | O=C1CCC(N2Cc3c(ccc4c3OCC43CCN(CC(=O)N(CC4CC4)C4CC5(CCN(c6ccc([C@@H]7c8ccc(O)cc8CC[C@@H]7c7ccccc7)cc6)CC5)C4)CC3)C2=O)C(=O)N1 (stereo partly shown) [H54]
0.199 | 28 | 62 | 56 | 83 | CCN(C(=O)CN1CCC2(CC1)COc1c2ccc2c1CN(C1CCC(=O)NC1=O)C2=O)C1CC2(CCN(c3ccc([C@@H]4c5ccc(O)cc5CC[C@@H]4c4ccccc4)cc3)CC2)C1 (stereo partly shown) [H55]
2.25 | -5 | 21 | 24 | 47 | CN(C(=O)CN1CCC2(CC1)COc1cc3c(cc12)CN(C1CCC(=O)NC1=O)C3=O)C1CCC2(CC1)CN(c1ccc([C@@H]3c4ccc(O)cc4CC[C@@H]3c3ccccc3)cc1)C2 (stereo partly shown) [H56]
2.32 | 50 | 70 | 53 | 84 | C[C@@H]1Cc2c(ccc3[nH]ncc23)C(c2ccc(N3CCC4(CC3)CC(N3CC[C@@H](N5CCC6(CC5)COc5c6ccc6c5CN(C5CCC(=O)NC5=O)C6=O)[C@@H](F)C3)C4)cn2)N1CC(F)(F)F (stereo partly shown) [H58]
7.36 | 40 | 34 | 61 | 46 | O=C1CCC(N2Cc3c(ccc4c3OCC43CCN(CC(=O)N4CCC(Oc5ccc([C@@H]6c7ccc(O)cc7CC[C@@H]6c6ccccc6)cc5)CC4)CC3)C2=O)C(=O)N1 (stereo partly shown) [H59]
0.106 | 38 | 35 | 41 | 37 | O=C1CCC(N2Cc3c(ccc4c3OCC43CCN(C(=O)CN4CCC(Oc5ccc([C@@H]6c7ccc(O)cc7CC[C@@H]6c6ccccc6)cc5)CC4)CC3)C2=O)C(=O)N1 (stereo partly shown) [H60]

From patent EP4656642A1, “ESTROGEN RECEPTOR PROTEOLYSIS TARGETING CHIMERA COMPOUND AND USE THEREOF” (GAN & LEE PHARM CO., LTD, priority 2023, dated 2024)
